Experimental data reported in patent US5358951A, “Angiotensin II receptor blocking 2, 3, 6 substituted quinazolinones” (American Cyanamid Company, priority 1993, dated 1994).

Test system: vasopressor response of angiotensin II
Assay: AII Challenge: antagonism of angiotensin II vasopressor response;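 on Response Average Change: post-dose Angiotensin II-evoked rise in systolic blood pressure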
Type: in vivo
Details: for inhibition in vivo at 1 mg/kg / inhibition in vivo at 3 mg/kg: Rattus norvegicus; for inhibition in vivo at 1 mg/kg: iv; for inhibition in vivo at 3 mg/kg: po
Outline: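 Conscious male SHR (16-20 weeks) with aortic and caval cannulae received angiotensin II at 0.05 and 0.1 ug/kg i.v. before and 30-300 min after compound dosing (i.v., i.p. or oral). Blockade is expressed as % of each rat's predose rise in systolic pressure.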

`CCCCc1nc2ccc(C3(C(=O)OC)CC4CCCN4O3)cc2c(=O)n1Cc1ccc(-c2ccccc2-c2nnn[nH]2)cc1` (mixture of isomers) [Example 78, Trans(+/-)-Methyl-2-[2-butyl-3,4-dihydro-4-oxo-3-[[2'-(1H-tetrazol-5-yl)[1,1'-biphenyl]-4-yl]methyl-6-quinazolinyl]hexahydropyrrolo[1,2-b]isoxazole-2-carboxylate] was tested. Which “Response Average Change” value (1 mg/kg i.v., AII 0.05 mcg/kg IV, 30 min post dose) did it give?
The value was 5 mmHg.

What about the “Response Average Change” value (1 mg/kg i.v., AII 0.05 mcg/kg IV, 60 min post dose) of the same compound?
The value was 12.5 mmHg.

And the “Response Average Change” value (1 mg/kg i.v., AII 0.05 mcg/kg IV, 90 min post dose)?
The value was 7.5 mmHg.

What about the “Response Average Change” value (1 mg/kg i.v., AII 0.05 mcg/kg IV, 120 min post dose) of the same compound?
Its value is 10 mmHg.

And the “Response Average Change” value (1 mg/kg i.v., AII 0.05 mcg/kg IV, 180 min post dose)?
The value was 11 mmHg.

And the “Response Average Change” value (1 mg/kg i.v., AII 0.05 mcg/kg IV, 240 min post dose)?
The value was 12.5 mmHg.

And the “Response Average Change” value (1 mg/kg i.v., AII 0.05 mcg/kg IV, 300 min post dose)?
Its value is 5 mmHg.

What about the “Response Average Change” value (1 mg/kg i.v., AII 0.1 mcg/kg IV, 30 min post dose) of the same compound?
Its value is 15 mmHg.

And the “Response Average Change” value (1 mg/kg i.v., AII 0.1 mcg/kg IV, 60 min post dose)?
The value was 12.5 mmHg.

And the “Response Average Change” value (1 mg/kg i.v., AII 0.1 mcg/kg IV, 90 min post dose)?
Its value is 15 mmHg.

And the “Response Average Change” value (1 mg/kg i.v., AII 0.1 mcg/kg IV, 120 min post dose)?
Its value is 17.5 mmHg.

What about the “Response Average Change” value (1 mg/kg i.v., AII 0.1 mcg/kg IV, 180 min post dose) of the same compound?
The value was 12.5 mmHg.

What about the “Response Average Change” value (1 mg/kg i.v., AII 0.1 mcg/kg IV, 240 min post dose) of the same compound?
The value was 12.5 mmHg.

What about the “Response Average Change” value (1 mg/kg i.v., AII 0.1 mcg/kg IV, 300 min post dose) of the same compound?
The value was 17.5 mmHg.

And the “Response Average Change” value (3 mg/kg P.O., AII 0.05 mcg/kg IV, 30 min post dose)?
The value was 27.5 mmHg.

What about the “Response Average Change” value (3 mg/kg P.O., AII 0.05 mcg/kg IV, 60 min post dose) of the same compound?
The value was 22.5 mmHg.

And the “Response Average Change” value (3 mg/kg P.O., AII 0.05 mcg/kg IV, 90 min post dose)?
The value was 22.5 mmHg.

What about the “Response Average Change” value (3 mg/kg P.O., AII 0.05 mcg/kg IV, 120 min post dose) of the same compound?
The value was 17.5 mmHg.

And the “Response Average Change” value (3 mg/kg P.O., AII 0.05 mcg/kg IV, 180 min post dose)?
Its value is 19 mmHg.

What about the “Response Average Change” value (3 mg/kg P.O., AII 0.05 mcg/kg IV, 240 min post dose) of the same compound?
The value was 19 mmHg.

And the “Response Average Change” value (3 mg/kg P.O., AII 0.05 mcg/kg IV, 300 min post dose)?
Its value is 27.5 mmHg.

What about the “Response Average Change” value (3 mg/kg P.O., AII 0.1 mcg/kg IV, 30 min post dose) of the same compound?
Its value is 35 mmHg.

What about the “Response Average Change” value (3 mg/kg P.O., AII 0.1 mcg/kg IV, 60 min post dose) of the same compound?
Its value is 25 mmHg.

What about the “Response Average Change” value (3 mg/kg P.O., AII 0.1 mcg/kg IV, 90 min post dose) of the same compound?
Its value is 17.5 mmHg.

And the “Response Average Change” value (3 mg/kg P.O., AII 0.1 mcg/kg IV, 120 min post dose)?
Its value is 15 mmHg.

And the “Response Average Change” value (3 mg/kg P.O., AII 0.1 mcg/kg IV, 180 min post dose)?
Its value is 17.5 mmHg.

What about the “Response Average Change” value (3 mg/kg P.O., AII 0.1 mcg/kg IV, 240 min post dose) of the same compound?
The value was 17.5 mmHg.

What about the “Response Average Change” value (3 mg/kg P.O., AII 0.1 mcg/kg IV, 300 min post dose) of the same compound?
Its value is 25 mmHg.

And the inhibition in vivo at 1 mg/kg (0.5 h, 1 mg/kg i.v., AII 0.05 mcg/kg IV, 30 min post dose)?
The inhibition in vivo at 1 mg/kg was 80%.

And the inhibition in vivo at 1 mg/kg (0.5 h, 1 mg/kg i.v., AII 0.1 mcg/kg IV, 30 min post dose)?
Its inhibition in vivo at 1 mg/kg is 45%.

What about the inhibition in vivo at 1 mg/kg (1 h, 1 mg/kg i.v., AII 0.05 mcg/kg IV, 60 min post dose) of the same compound?
Its inhibition in vivo at 1 mg/kg is 50%.

And the inhibition in vivo at 1 mg/kg (1 h, 1 mg/kg i.v., AII 0.1 mcg/kg IV, 60 min post dose)?
Its inhibition in vivo at 1 mg/kg is 55%.

What about the inhibition in vivo at 1 mg/kg (2 h, 1 mg/kg i.v., AII 0.05 mcg/kg IV, 120 min post dose) of the same compound?
The inhibition in vivo at 1 mg/kg was 60%.

And the inhibition in vivo at 1 mg/kg (2 h, 1 mg/kg i.v., AII 0.1 mcg/kg IV, 120 min post dose)?
Its inhibition in vivo at 1 mg/kg is 36%.

And the inhibition in vivo at 1 mg/kg (3 h, 1 mg/kg i.v., AII 0.05 mcg/kg IV, 180 min post dose)?
The inhibition in vivo at 1 mg/kg was 56%.

And the inhibition in vivo at 1 mg/kg (3 h, 1 mg/kg i.v., AII 0.1 mcg/kg IV, 180 min post dose)?
The inhibition in vivo at 1 mg/kg was 55%.

What about the inhibition in vivo at 1 mg/kg (4 h, 1 mg/kg i.v., AII 0.05 mcg/kg IV, 240 min post dose) of the same compound?
Its inhibition in vivo at 1 mg/kg is 50%.

What about the inhibition in vivo at 1 mg/kg (4 h, 1 mg/kg i.v., AII 0.1 mcg/kg IV, 240 min post dose) of the same compound?
The inhibition in vivo at 1 mg/kg was 55%.

What about the inhibition in vivo at 1 mg/kg (5 h, 1 mg/kg i.v., AII 0.05 mcg/kg IV, 300 min post dose) of the same compound?
The inhibition in vivo at 1 mg/kg was 80%.

And the inhibition in vivo at 1 mg/kg (5 h, 1 mg/kg i.v., AII 0.1 mcg/kg IV, 300 min post dose)?
Its inhibition in vivo at 1 mg/kg is 36%.

And the inhibition in vivo at 1 mg/kg ([…], 1 mg/kg i.v., AII 0.05 mcg/kg IV, 90 min post dose)?
Its inhibition in vivo at 1 mg/kg is 70%.

What about the inhibition in vivo at 1 mg/kg ([…], 1 mg/kg i.v., AII 0.1 mcg/kg IV, 90 min post dose) of the same compound?
The inhibition in vivo at 1 mg/kg was 45%.

What about the inhibition in vivo at 3 mg/kg (0.5 h, 3 mg/kg P.O., AII 0.05 mcg/kg IV, 30 min post dose) of the same compound?
The inhibition in vivo at 3 mg/kg was 0%.

What about the inhibition in vivo at 3 mg/kg (0.5 h, 3 mg/kg P.O., AII 0.1 mcg/kg IV, 30 min post dose) of the same compound?
The inhibition in vivo at 3 mg/kg was -17%.

And the inhibition in vivo at 3 mg/kg (1 h, 3 mg/kg P.O., AII 0.05 mcg/kg IV, 60 min post dose)?
The inhibition in vivo at 3 mg/kg was 18%.

What about the inhibition in vivo at 3 mg/kg (1 h, 3 mg/kg P.O., AII 0.1 mcg/kg IV, 60 min post dose) of the same compound?
Its inhibition in vivo at 3 mg/kg is 17%.

And the inhibition in vivo at 3 mg/kg (2 h, 3 mg/kg P.O., AII 0.05 mcg/kg IV, 120 min post dose)?
The inhibition in vivo at 3 mg/kg was 36%.

And the inhibition in vivo at 3 mg/kg (2 h, 3 mg/kg P.O., AII 0.1 mcg/kg IV, 120 min post dose)?
The inhibition in vivo at 3 mg/kg was 50%.

What about the inhibition in vivo at 3 mg/kg (3 h, 3 mg/kg P.O., AII 0.05 mcg/kg IV, 180 min post dose) of the same compound?
Its inhibition in vivo at 3 mg/kg is 31%.

And the inhibition in vivo at 3 mg/kg (3 h, 3 mg/kg P.O., AII 0.1 mcg/kg IV, 180 min post dose)?
Its inhibition in vivo at 3 mg/kg is 42%.

And the inhibition in vivo at 3 mg/kg (4 h, 3 mg/kg P.O., AII 0.05 mcg/kg IV, 240 min post dose)?
Its inhibition in vivo at 3 mg/kg is 31%.

And the inhibition in vivo at 3 mg/kg (4 h, 3 mg/kg P.O., AII 0.1 mcg/kg IV, 240 min post dose)?
Its inhibition in vivo at 3 mg/kg is 42%.

What about the inhibition in vivo at 3 mg/kg (5 h, 3 mg/kg P.O., AII 0.05 mcg/kg IV, 300 min post dose) of the same compound?
The inhibition in vivo at 3 mg/kg was 0%.

And the inhibition in vivo at 3 mg/kg (5 h, 3 mg/kg P.O., AII 0.1 mcg/kg IV, 300 min post dose)?
The inhibition in vivo at 3 mg/kg was 17%.

What about the inhibition in vivo at 3 mg/kg ([…], 3 mg/kg P.O., AII 0.05 mcg/kg IV, 90 min post dose) of the same compound?
Its inhibition in vivo at 3 mg/kg is 18%.

What about the inhibition in vivo at 3 mg/kg ([…], 3 mg/kg P.O., AII 0.1 mcg/kg IV, 90 min post dose) of the same compound?
The inhibition in vivo at 3 mg/kg was 42%.
